PMC2917628 (FEBS letters, 2010)
Where a name gives a salt, the structure may show the parent alone.

Experiments:
NIH 3T3 cells = details: ref [9]; cited from earlier work
[1] = system: LNCaP cells expressing Abi1 Y213F; experiment: flow cytometric uptake of Alexa Fluor 647; format: cell-based; details: 25 μM Alexa Fluor 647 hydrazide, 2 hours
[2] = system: macropinocytic uptake of pathogenic bacteria; details: ref [10],[11]; cited from earlier work
[3] = system: macropinocytic uptake and membrane ruffles; details: ref [21]; cited from earlier work
Rac1 activation = details: ref [25]; cited from earlier work

O=c1cc(N2CCOCC2)oc2c(-c3ccccc3)cccc12 [LY294002]
macropinocytic uptake of Alexa Fluor 594 (NIH 3T3 cells): inhibit macropinocytic uptake

C/C1=C/C(=O)O[C@@H]2C[C@@H](CC[C@H](C)/C=C\C=C\CC1)O[C@@](O)([C@@H]1CSC(=O)N1)C2 [Latrunculin A, latrunculin A]
macropinocytic uptake of Alexa Fluor 647 with latrunculin A, Abi1 Y213F cells ([1]; 0.2 μM latrunculin A, PDGF not added): significant decrease

Cc1ccc(NC(=O)c2ccc(CN3CCN(C)CC3)cc2)cc1Nc1nccc(-c2cccnc2)n1 [STI-571, Imatinib mesylate]
macropinocytic uptake of pathogenic bacteria [2]: inhibits macropinocytic uptake of pathogenic bacteria

COC[C@H]1OC(=O)c2coc3c2[C@@]1(C)C1=C(C3=O)[C@@H]2CCC(=O)[C@@]2(C)C[C@H]1OC(C)=O [wortmannin]
macropinocytic uptake and formation of membrane ruffles [3]: inhibits macropinocytic uptake and the formation of membrane ruffles but not in all cells | macropinocytic uptake of Alexa Fluor 594 (NIH 3T3 cells): inhibit macropinocytic uptake

B1: PDGF: PDGF BB (cat # 3201), Sigma-Aldrich (protein, UniProt P01127 82-190, looked up)
Platelet-derived growth …: SLGSLTIAEPAMIAECKTRTEVFEISRRLIDRTNANFLVWPPCVEVQRCSGCCNNRNVQCRPTQVQLRPVQVRKIEIVRKKPIFKKATVTLEDHLACKCETVAAARPVT
modifications: Platelet-derived growth factor subunit B homodimer
Rac1 activation following PDGF stimulation (Rac1 activation): enhanced Rac1 activation | PDGF response of Alexa Fluor 647 uptake, Abi1 Y213F cells ([1]; 10 ng/ml PDGF): demonstrated PDGF response
